The values below come from BindingDB's records for doi:10.1021/jm800792b (Industrial Research, 2008).

Structures are written as SMILES.

Experiment [1] has as its target T1, Purine nucleoside phosphorylase (Homo sapiens, UniProt P00491).
T1 sequence (P00491 whole entry): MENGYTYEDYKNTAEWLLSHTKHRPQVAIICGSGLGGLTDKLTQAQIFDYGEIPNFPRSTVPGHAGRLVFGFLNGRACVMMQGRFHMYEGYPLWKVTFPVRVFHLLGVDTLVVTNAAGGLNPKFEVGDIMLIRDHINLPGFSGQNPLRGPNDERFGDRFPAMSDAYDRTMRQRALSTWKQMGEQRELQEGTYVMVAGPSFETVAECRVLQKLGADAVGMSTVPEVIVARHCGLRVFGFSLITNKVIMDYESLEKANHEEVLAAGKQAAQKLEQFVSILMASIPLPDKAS
Description: Inhibition of human purine nucleoside phosphorylase by xanthine-oxidase coupled assay.

Experiment [2] concerns the target T1, Purine nucleoside phosphorylase. Description: Inhibition of human purine nucleoside phosphorylase assessed as slow onset inhibition constant by xanthine-oxidase coupled assay.

With `O=c1[nH]cnc2c(CN3C[C@H](O)[C@@](F)(CO)C3)c[nH]c12` [Immucillins, 1], the results for the Ki in experiment [1] and in experiment [2] were 66 pM and 500 pM, respectively.
